# Measured values from patent publication US9045403B2 (Coyote Pharmaceuticals, Inc., priority 2012, dated 2015).
# Tests used:
# [1] = test system: Neuro2A cells treated with A-beta (O); assay: Rescue of amyloid-beta oligomer induced cytotoxicity in Neuro 2A cells (CellTiter-Glo); type: cell-based; conditions: Mus musculus, N2a, compound 1 uM, A-beta (O) together with compound 48 hr, read-out: % viability vs. untreated
# Description: Preparation of amyloid-beta oligomer (A-beta (O)): Synthetic wild type A-beta (1-42) was purchased from American Peptide, and first dissolved with hexafluoroisopropanol (HFIP), then dried in the blowing tissue culture hood overnight to form a film in the eppendorf tube. The A-beta peptide film was first resuspended with DMSO to a concentration of 5 mM, further diluted with DMEM containing N2 supplement (Invitrogen) to achieve a concentration of 100 μM, and then sonicated in room temperature water bath for 10 minutes. The 100 μM peptide solution was then incubated at 4° C. for 24 hr and thoroughly vortexed before applied to cells.
# Mouse neuroblastoma Neuro2A cells were plated in 96-well plates and cultured in DMEM supplemented with 10% FBS for 24 hr. […] At the end of incubation, cells were harvested and subjected to viability assay using CellTiter-Glo Luminescent Cell Viability Assay Kit (Promega). The data for each treatment was calculated as average of 4 replicates and normalized to that of A-beta (O) treated only. Compound ID numbers in table refer to structures in Table 1 and Table 2.
# HSP70 [2] = assay: HSP70 levels in Neuro 2A cells by ELISA; type: cell-based, mouse; conditions: 10 uM compound for 48 hrs, then GGTI-298 24 hrs
# Description: Mouse neuroblastoma 2a cells were cultured in DMEM with 10% FBS for 24 hrs. […] After 24 hrs cells were harvested and lysates were prepared and analyzed by ELISA for HSP70. Compound ID numbers in table refer to structures in Table 1 and Table 2.
# [3] = test system: Mouse Neuro2A neuroblastoma cells; assay: Neuro2A cells with neurites after GGTI-298 (Example 16); type: cell-based; conditions: 10 μM, 48 hrs
# Description: Mouse Neuro2A neuroblastoma cells were cultured in DMEM supplemented with 10% FBS for 24 hrs. […] Then differentiation was induced by retinoic acid in DMEM supplemented with 2% FBS. The cell culture was incubated with a Geranylgeranyl Transferase inhibitor, GGTI-298. […]
# Neuro2A cells = Neuro2A cells that extended neurites, with GGTI-298 (Example 18); type: cell-based, mouse; conditions: 0.1-1 μM, vehicle 0.0-0.20
# Text: After differentiation was induced, cells that extended neurites were counted.
# [4] = test system: Sprague-Dawley rats injected with Kainic acid; assay: Kainic acid induced neurodegeneration and seizure in rats (Example 21); type: in vivo, rat; conditions: oral
# Text: Seizure behaviors were observed and scored (Ref. R. J. Racine, Modification of seizure activity by electrical stimulation: II. Motor seizure, Electroencephalogr. Clin. Neurophysiol. 32 (1972) 281-294. Modifications were made for the methods). Brain tissues of rats were sectioned on histology slides, and neurons in hippocampus tissues were stained by Nissl. Neurons damaged by Kainic acid and behavior scores were quantified.
# HSP70 [5] = assay: HSP70 expression in Neuro2A cells by western blot; type: cell-based, mouse; conditions: for HSP70 western signal (absence of compounds = 1.00): 48 hours, then GGTI-298
# Description: Differentiation was induced and cells incubated with geranylgeranyl transferase I inhibitor, GGTI-298. Cells were harvested and lysates were prepared and analyzed by western blot for HSP70 and HSP90. Western signals in the absence of the compounds were normalized as 1.00.
# [6] = test system: Murine neuro2A neuroblastoma cells; assay: Neurite outgrowth of neuro2A cells inhibited with GGTI-298 (Example 30); type: cell-based, mouse; conditions: for Median Counts of cells with neurite outgrowth: CNS-102 vs CNS-103 experiment (no inhibition 60.3, PBS 18.5); for Relative %: relative to uninhibited count
# Description: Differentiation was induced and cells incubated with geranylgeranyl transferase I inhibitor, GGTI-298. After 24 h digital images were taken and neurite outgrowth was quantified. The comparisons of the neuroprotective effect of these three compounds are shown below.
# The estimated mean log10 counts, from five replicate wells for each treatment group were calculated by PROC GLM in SAS assuming a pooled estimate of variation.
# The estimated mean log10 counts from five replicate wells for each treatment group were calculated by PROC GLM in SAS assuming a pooled estimate of variation.
# Differences in mean log(counts) between treatments for each concentration were calculated using PROC GLM in SAS. The p-value given is for the comparison of the estimated difference to zero, the expected difference value for no treatment effect. The anti-log of the differences represent the estimated ratio of counts (relative effect on inhibition) and are tabulated below along with the lower and upper 95% confidence intervals.
# Rap1 = assay: Prenylation of Rap1 in Neuro2A cells with GGTI-298 (western blot); type: cell-based, mouse; conditions: 100 nM; percentage of control treatments (GGTI only)
# Description: Mouse neuroblastoma Neuro2A cells were cultured in DMEM supplemented with 10% FBS for 24 hrs. The cells were treated with 102GGA derivative compounds for 24 hrs first before GGTase inhibitor GGTI-298 was added to the culture medium for additional 24 hr incubation. […] Both un-prenylated and total Rap1 protein bands were quantified using Image J and normalized to their respective loading control GAPDH. The results for control and each compound treatment were calculated as the ratio of normalized un-prenylated Rap1 to total Rap1, and averaged from two biological repeats of one experiment. The final results were presented as a percentage of the control treatments (GGTI only) from the same batch experiment. The data shown in the chart were averaged from two repeats of one experiment and presented as the ratio of normalized un-prenylated Rap1 to total Rap1. Compound ID numbers in table refer to structures in Table 1 and Table 2.
# [7] = 10000 nM, CNS-102 vs CNS-103 experiment
smiles,measurement,setting,value
CC(C)=CCC/C(C)=C/CC/C(C)=C/CC/C(C)=C/CCC(C)=NO [Compound 103],viability at 1 µM,[1],128%
"CC(C)=CCC/C(C)=C/CC/C(C)=C/COC(=S)NC1CC1 [Compound 9d, Cyclopropyl 2E, 6E-farnesyl thiocarbamate]",HSP70 ELISA signal (absence of compound normalized as 1.00),HSP70 [2],0.95
CCC(=O)CC/C=C(\C)CC/C=C(\C)CCC=C(C)C [Compound 102],viability at 1 µM,[1],140%
CC(=O)CC/C=C(/C)CC/C=C(\C)CC/C=C(\C)CCC=C(C)C [CNS-103],Mean of cell numbers (Arbitrary units),[3],0.195 Arbitrary units
same,Mean of cell numbers (Arbitrary units),Neuro2A cells,0.20-0.45 Arbitrary units
same,Mean of Hippocampus CA3 neurons damaged (Arbitrary units),[4]; 12 mg/Kg rat,8.16 Arbitrary units
same,Mean of Hippocampus CA3 neurons damaged (Arbitrary units),[4]; 25 mg/Kg rat,10.64 Arbitrary units
same,HSP70 western signal (absence of compounds = 1.00),HSP70 [5]; 100 nM,1.00
same,HSP70 western signal (absence of compounds = 1.00),HSP70 [5]; 10 μM,0.99
same,induction of HSP70 expression (in words),"HSP70 [5]; Neuro2A cells, western blot",failed to induce expression of HSP70
same,Median Counts of cells with neurite outgrowth,[6]; 10 nM,26.7
same,Relative %,"[6]; 10 nM, CNS-102 vs CNS-103 experiment",44.3%
same,Median Counts of cells with neurite outgrowth,[6]; 100 nM,29.3
same,Relative %,"[6]; 100 nM, CNS-102 vs CNS-103 experiment",48.6%
same,Median Counts of cells with neurite outgrowth,[6]; 1000 nM,28.7
same,Relative %,"[6]; 1000 nM, CNS-102 vs CNS-103 experiment",47.6%
same,Protection %,[6]; [7],−5.3%
same,Median Counts of cells with neurite outgrowth,[6]; 10000 nM,16.3
same,Relative %,[6]; [7],27%
same,maximum protection,"[6]; CNS-102 vs CNS-103 experiment, FIG. 4B",~26%
same,unprenylated/total RAP1 (%),Rap1,96%
